Source: ChEMBL document CHEMBL4342436, “Artemisia: a promising plant for the treatment of cancer” (Bioorg Med Chem, 2020)
In brackets after ≈: the same amount, converted by molar mass.

Assays:
A549 = assay: Cytotoxicity against human A549 cells assessed as reduction in cell viability by CCK8 assay; assay type: functional, cell-based
HepG2 = assay: Cytotoxicity against human HepG2 cells assessed as reduction in cell viability by CCK8 assay; assay type: functional, cell-based
SMMC-7721 = assay: Cytotoxicity against human SMMC7721 cells by MTT assay; assay type: functional, cell-based
SGC-7901 = assay: Cytotoxicity against human SGC7901 cells by MTT assay; assay type: functional, cell-based
MCF7 = assay: Cytotoxicity against human MCF7 cells at 50 nM in presence of doxorubicin relative to control; assay type: functional
[1] = Cytotoxicity against human PG100 cells assessed as cell viability at 955.2 ug/mL after 24 hrs by MTT assay relative to control; assay type: functional; settings: read-out: Activity
AGS = assay: Antiproliferative activity against human AGS cells assessed as reduction in cell viability after 24 hrs by CCK8 assay; assay type: functional, cell-based
[2] = Antiproliferative activity against human SNU601 cells assessed as reduction in cell viability after 24 hrs by CCK8 assay; assay type: functional, cell-based; settings: SNU-601, 24 h
[3] = Antiproliferative activity against human SNU484 cells assessed as reduction in cell viability after 24 hrs by CCK8 assay; assay type: functional, cell-based; settings: SNU-484, 24 h
U-87 MG = assay: Induction of apoptosis in human U87MG cells assessed as increase in apoptotic cells at 50 uM after 24 hrs by Annexin V-FITC/propidium iodide staining based flow cytometric analysis relative to control; assay type: functional, U-87MG ATCC
MKN-1 = assay: Antiproliferative activity against human MKN1 cells assessed as reduction in cell viability after 24 hrs by CCK8 assay; assay type: functional, cell-based; settings: MKN-1, 24 h
HL-60 [4] = assay: Antiproliferative activity against human HL60 cells assessed as cell viability at 150 uM by MTT assay relative to control; assay type: functional; settings: read-out: Activity
SNU-638 = assay: Antiproliferative activity against human SNU638 cells assessed as reduction in cell viability after 24 hrs by CCK8 assay; assay type: functional, cell-based; settings: SNU-638, 24 h
HCT-116 = assay: Growth inhibition of human HCT116 cells assessed as reduction in cell viability at 15 uM by MTT assay relative to control; assay type: functional; settings: read-out: GI
IGROV-1 = assay: Growth inhibition of human IGROV1 cells assessed as reduction in cell viability at 15 uM by MTT assay relative to control; assay type: functional; settings: read-out: GI
OVCAR-3 = assay: Growth inhibition of human OVCAR3 cells assessed as reduction in cell viability at 15 uM by MTT assay relative to control; assay type: functional; settings: read-out: GI
SW-620 = assay: Antitumour activity against human SW620 cells xenografted in nude mouse assessed as inhibition of tumour growth at 50 mg/kg, ip for 17 days relative to control; assay type: functional; settings: SW-620, ip, 408 h, read-out: TGI
NCI-H23 = assay: Antitumour activity against human NCI-H23 cells xenografted in nude mouse assessed as inhibition of tumour growth at 50 mg/kg, ip for 17 days relative to control; assay type: functional; settings: 408 h, read-out: TGI
K562 [5] = assay: Cytotoxicity against human K562 cells assessed as cell viability at 75 uM after by MTT assay relative to control; assay type: functional; settings: read-out: Activity
K562 [6] = assay: Antiproliferative activity against human K562 cells assessed as cell viability at 75 uM after 48 hrs relative to control; assay type: functional; settings: K562, 48 h, read-out: Activity
HL-60 [7] = assay: Antiproliferative activity against human HL60 cells assessed as reduction in cell viability after 3 days by XTT assay; assay type: functional, cell-based; settings: HL-60, 72 h
DU-145 = assay: Growth inhibition of human DU145 cells at 200 uM after 24 hrs by WST-1 assay relative to control; assay type: functional; settings: DU-145, 24 h, read-out: GI
H22 = assay: Antitumour activity against mouse H22 cells transplanted in mouse assessed as tumour growth inhibition at 300 mg/kg after 7 days relative to control; assay type: functional; settings: H22, 168 h, read-out: TGI
MGC-803 = assay: Cytotoxicity against human MGC803 assessed as cell viability at 160 mg/l after 48 hrs by MTT assay relative to control; assay type: functional; settings: MGC-803, 48 h, read-out: Activity
MG-63 [8] = assay: Antitumour activity against human MG63 cells xenografted in nude BALB/c mouse assessed as tumour weight at […], ip for 5 days co-treated with allicin; assay type: functional
HGC-27 = assay: Cytotoxicity against human HGC27 assessed as cell viability at 160 mg/l after 48 hrs by MTT assay relative to control; assay type: functional; settings: HGC-27, 48 h, read-out: Activity
CFPAC-1 [9] = assay: Cytotoxicity against human CFPAC-1 cells assessed as cell viability after 24 hrs by MTT assay relative to control; assay type: functional
Lymphocyte = assay: Cytotoxicity against human lymphocytes; assay type: cell-based
U2OS = assay: Cytotoxicity against human U2OS cells assessed as cell viability after 48 hrs in presence of allicin by MTT assay relative to control; assay type: functional
BGC-823 = assay: Cytotoxicity against human BGC823 assessed as cell viability at 160 mg/l after 48 hrs by MTT assay relative to control; assay type: functional; settings: BGC-823, 48 h, read-out: Activity
MG-63 [10] = assay: Cytotoxicity against human MG63 cells assessed as cell viability after 48 hrs in presence of allicin by MTT assay relative to control; assay type: functional
PANC-1 [11] = assay: Antitumour activity against human PANC1 cells xenografted in ip dosed nude BALB/c mouse assessed as tumor weight for 18 days; assay type: functional
PANC-1 [12] = assay: Cytotoxicity against human PANC1 cells assessed as cell viability after 24 hrs by MTT assay relative to control; assay type: functional
Y79 = assay: Induction of cell death in human Y79 cells by propidium iodide staining based flow cytometric analysis relative to control; assay type: functional
CFPAC-1 [13] = assay: Antitumour activity against human CFPAC-1 cells xenografted in ip dosed nude BALB/c mouse assessed as tumor weight for 18 days; assay type: functional

C=C1C(=O)O[C@@H]2[C@@H]3C4(C=C[C@@]3(C)[C@]3(C4)C(=O)O[C@@H]4[C@H]5C(C)=CC(=O)C5=C(C)C[C@H](OC(C)=O)[C@H]43)[C@@](C)(OC(C)=O)CC[C@@H]12
IC50 (A549): 0.6 to 5.4 µM | IC50 (HepG2): 0.6 to 5.4 µM

CC1=CC2O[C@@H]3C[C@H]4OC(=O)/C=C\CC[C@]56OCCC7(OC7C(=O)OC[C@@]2(CC1)[C@]4(C)[C@]31CO1)[C@H]5OC(=O)[C@H]6O (stereo not given in full)
IC50 (SMMC-7721): 10.54 µg/mL (≈ 18.9 µM) | IC50 (SGC-7901): 0.26 µg/mL (≈ 0.465 µM)

CO[C@H]1O[C@@H]2O[C@@]3(C)CC[C@H]4[C@H](C)CC[C@@H]([C@H]1C)[C@@]24OO3
Activity (MCF7): 50% | viability at 955.2 µg/mL [1]: 5.55%

COc1ccc(-c2cc(=O)c3c(O)c(OC)c(O)cc3o2)cc1OC [EUPATILIN]
IC50 (AGS): 50 to 100 µM | IC50 [2]: 50 to 100 µM | IC50 [3]: 50 to 100 µM | Activity (U-87 MG): 40% | IC50 (MKN-1): 50 to 100 µM | viability at 150 µM (HL-60 [4]): 50% | IC50 (SNU-638): 50 to 100 µM

COc1cc2oc(-c3ccc(O)c(O)c3)cc(=O)c2c(O)c1OC [CIRSILIOL]
inhibition of growth at 15 µM (HCT-116): 40.9% | inhibition of growth at 15 µM (IGROV-1): 48.8% | inhibition of growth at 15 µM (OVCAR-3): 53.7%

C=C1C(=O)O[C@@H]2[C@@H]3[C@@]4(C=C[C@@]3(C)[C@@]3(C4)C(=O)O[C@@H]4[C@H]5C(C)=CC(=O)C5=C(C)C[C@H](OC(=O)/C(C)=C\C)[C@H]43)[C@](C)(O)CC[C@@H]12
inhibition in vivo at 50 mg/kg (SW-620): 39.5% | inhibition in vivo at 50 mg/kg (NCI-H23): 30.3%

C[C@@H]1C(=O)O[C@H]2C1CC[C@@]1(C)[C@H](O)CC[C@@]13C[C@]2(O)OO3 (stereo not given in full)
viability at 75 µM (K562 [5]): 40% | viability at 75 µM (K562 [6]): 40%

COc1c(O)cc2oc(Oc3ccc(O)cc3)cc(=O)c2c1O
IC50 (HL-60 [7]): 1.1 to 40.7 µg/mL (≈ 3.48 to 129 µM) | inhibition of growth at 200 µM (DU-145): 20%

C[C@H]1[C@H](OC(=O)CCC(=O)O)O[C@@H]2O[C@@]3(C)CC[C@H]4[C@H](C)CC[C@@H]1[C@@]24OO3 [ARTESUNATE]
inhibition in vivo at 300 mg/kg (H22): 49.1% | viability at 160 µg/mL (MGC-803): < 20% | Activity (MG-63 [8]): <0.5 g | viability at 160 µg/mL (HGC-27): < 20% | Activity (CFPAC-1 [9]): <10% | IC50 (Lymphocyte): 80 µM | Activity (U2OS): <25% | viability at 160 µg/mL (BGC-823): < 20% | Activity (MG-63 [10]): <25% | Activity (PANC-1 [11]): <0.4 g | Activity (PANC-1 [12]): <10% | Activity (Y79): 80% | Activity (CFPAC-1 [13]): <0.4 g
